Patent US11351185B2, “Use of isovalerylspiramycins as anti-cancer agents to inhibit metastasis” (priority 2020, dated 2022)
“Also recorded” adds a separate entry of the source.

Columns and labels:
LN229 and U251 cells = test: Annexin V apoptosis flow cytometry, glioblastoma cells; type: cell-based
Experimental: To assess the cytotoxicity of ISPs I, II and III, five glioblastoma cell lines, T98G, U118, A172, LN229 and U251, were treated with serial doses of each ISP, respectively, for 48 hours. Cell viability of these cell lines were evaluated by CCK8 assay, and the 50% inhibitory concentration (IC50) was calculated (FIG. 2A, B and FIG. 3). […] Cell distribution in each phase of the cell cycle was assessed in LN229 and U251 cells by flow cytometry, followed by EdU and DAPI staining.
Cells (2×10^5) were plated in 6-well plates and treated with different concentrations of ISP I. Then the cells were harvested and washed three times with PBS. Cells were resuspended in 100 μl binding buffer and were incubated with 5 μl APC-conjugated Annexin V working solution, a product of BD bioscience (Franklin Lakes, N.J. USA), and 1 μl propidium iodide (PI), a product of Invitrogen, for 15 min at room temperature with protection from light. Data acquisition and quantification were processed with BD LSRFortessa flow cytometer, using FlowJo software (Ashland, Oreg. USA).

[1] = tested on: SELH-deficient 786-O and RCC4 cells; test: CCK8 assay in SELH-deficient (CRISPR/CAS9) RCC cells; type: cell-based; conditions: 786-O and RCC4 SELH knock out
Experimental: Cell viability was measured by Cell Counting Kit-8 (CCK-8, Dojindo Molecular Technologies, Tokyo, Japan). Cells were seeded in 96-well plates at a density of 3×10^3 cells/well and cultured for 24 hours before treatment with ISP I at different concentration. After treatment for a gradient ISP I concentration from 0 to 20 μg/ml for 48 hours, while control groups were only treated in PBS solution, 10 μl of CCK-8 solution were added to each well and cells were incubated for an additional 2 hours. The absorbance in each well at a wavelength of OD450 was detected by the Synergy H1 microplate reader, a product of BioTek (Winooski, Vt. USA).

JNK2, POL1, TIF1A = test: Western blot of JNK2 phosphorylation, POL1 and TIF1A; type: cell-based; conditions: LN229 cells
Experimental: SELH is localized in the nucleolus, which is a sensor of oxidative stress. Yang et al., Nature communications 7: 13599 (2016); Novoselov et al., J. Biol. Chem. 282: 11960 (2007). […] JNK2 activation by oxidative stress inactivated RNA polymerase I (POL1) transcription factor TIF1A in the nucleoli to down-regulate rRNA synthesis. Mayer et al., Genes Dev. 19: 933 (2005). To investigate whether the ribosomal biogenesis was disrupted by ISP I, pre-rRNA transcription was evaluated using real-time RT-PCR analysis in LN229 cells. […] To examine the mechanisms by which ISP I disrupts POL1 transcription, the inventors initially evaluated JNK2 activity and the overall state of the transcription machinery in ISP I-treated LN229 cells.
Western blotting was performed to detect the protein expression level of SELH, NRF2 and γH2AX regulated by ISP I. The cells were lysed by RIPA buffer from ThermoFisher Scientific, and the concentration was measured using DC Protein Assay, a Bio-Rad product. Equal amounts of protein of each sample were loaded for gel electrophoresis and were transferred to nitrocellulose membrane, blocked and incubated overnight at 4° C. with primary antibodies. Then the membranes were washed with TBST (3 times, 10 min each). Exposure, imaging, and data analysis were done using a KwikQuant Imager system, a product of Kindle Biosciences (Greenwich, Conn. USA). […]

IOMM tumors = test: IOMM meningioma subcutaneous xenograft mouse model; type: in vivo, Nude mice; conditions: 35 mg/kg i.p. daily; 18 days after treatment
Experimental: For subcutaneous xenografts, NSG mice (6-8 weeks old) from the NCI-Frederick animal facility and Jackson Lab (Bar Harbor, Me. USA) were injected with 5×10^6 to 1×10^7 cells subcutaneously in the flank. One week later, the tumor-bearing mice were randomly assigned to different groups and made the tumor volume baseline equivalent and treated with normal saline or Zenomycin (35 mg/kg) everyday intraperitoneally. Tumors were measured using a caliper, and volume was calculated.

[2] = Preclinical observation on doubled i.p. dose; type: in vivo; conditions: mice; one week of continuing administration
Experimental: Furthermore, the medicament is administered in “a therapeutically effective amount,” i.e., in a single dose or in multiple, divided subdoses at a suitable interval, e.g., two, three or more subdoses over a day or another appropriate schedule, to a prescribed total amount of active, such that metastasis is inhibited in the subject. Like the dose schedule, the effective amount of medicament will depend on a variety of factors, including the age and condition of the subject, the nature and extent of the cancerous condition, any contraindications, and the pharmacokinetic and pharmacodynamic characteristics of the medicament. For example, based on an accepted guide to animal-to-human dose conversion, see Nair R. Jacob, J. Basic. Clin. Pharm.

human cancer lines = conditions: MCF-7, MDA-MB-231, HepG2, A549, H460, H1299, 786-0, 769-P, U251, A172, U937, HeLa, PC3, PANC-1, TE-1, SGC-7901, HT-29, HL-60; cited from earlier work
[3] = tested on: in vivo cancer parameters; conditions: animal models; cited from earlier work
SELH = target: T1, SELH (Homo sapiens, UniProt Q8IZQ5); test: Western blot of SELH protein level in treated cells; type: cell-based; parameters: endogenous in cells; host or cells: LN229, 786-O, T98G, U118, U251, RCC4; conditions: for SELH protein expression, different concentrations: LN229 cells, 24 hours post-treatment
T1 sequence (Q8IZQ5 1-122): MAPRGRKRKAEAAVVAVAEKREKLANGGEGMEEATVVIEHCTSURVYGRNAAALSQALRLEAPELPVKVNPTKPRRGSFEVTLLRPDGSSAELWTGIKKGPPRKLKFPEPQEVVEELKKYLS
Experimental: A cycloheximide (CHX) chase assay was completed to assess ISP I's effect on SELH protein degradation.
Western blotting was performed to detect the protein expression level of SELH, NRF2 and γH2AX regulated by ISP I. The cells were lysed by RIPA buffer from ThermoFisher Scientific, and the concentration was measured using DC Protein Assay, a Bio-Rad product. Equal amounts of protein of each sample were loaded for gel electrophoresis and were transferred to nitrocellulose membrane, blocked and incubated overnight at 4° C. with primary antibodies. Then the membranes were washed with TBST (3 times, 10 min each). Exposure, imaging, and data analysis were done using a KwikQuant Imager system, a product of Kindle Biosciences (Greenwich, Conn. USA). The following antibodies were used: anti-phospho-histone H2A.X (Ser139), anti-NRF2 (Cell Signaling, Danvers, Mass. USA), anti-SELH (Abcam, Cambridge, Mass. USA), anti-GAPDH (Millipore, Temecula, Calif. USA).

## COC1C(O)CC(=O)OC(C)CC=CC=CC(OC2CCC(N(C)C)C(C)O2)C(C)CC(CC=O)C1OC1OC(C)C(OC2CC(C)(O)C(OC(=O)CC(C)C)C(C)O2)C(N(C)C)C1O (stereo not drawn) [ISP I, 4″-isolvalerylspiramycin I]
LN229 and U251 cells
  apoptosis (Annexin V stain): induced a dose-dependent apoptosis
[1]
  sensitivity of SELH-deficient cells vs wild type (CCK8): resistance to ISP I; also recorded: SELH-deficient cells were resistant to ISP I treatment
JNK2, POL1, TIF1A
  JNK phosphorylation (western blot): increased JNK2 phosphorylation; also recorded: JNK1 phosphorylation increased
  POL1 and TIF1A expression (western blot): slightly reducing POL1 and TIF1A expression in a dose-dependent manner; also recorded: expression of POL1 and TIF1A slightly decreased
IOMM tumors
  tumor size, weight and burden: reduced IOMM tumor burden; also recorded: significantly reduced tumor size and weight
[2]
  adverse effect on doubling of the i.p. dose: severe diarrhea
Human cancer lines
  effect on proliferation in vitro of human cancer lines: inhibitory effect
[3]
  in vivo cancer parameters such as tumor growth rate and relative tumor volume: reduction
SELH; 786-O and RCC4, 10 μg/ml, 24 hours
  SELH protein levels in RCC cell lines: decreased SELH levels; also recorded: inhibitory effect on SELH expression also was confirmed
SELH
  SELH protein expression, different concentrations: reduced SELH protein expression in LN229 cells in a dose-dependent manner
SELH; listed as ISP 1
  SELH protein expression, different concentrations: decline, in a dose-dependent manner, of SELH levels
SELH; T98G, U118, LN229, U251, 10 μg/mL, 24 hours
  SELH protein levels in glioblastoma cell lines: decreased SELH levels; also recorded: inhibitory effect on SELH expression also was confirmed
